A short description of data set [1]: Comparative stability study of solutions of docetaxel tri-hydrate and anhydrous forms in polysorbate 80 with and without acid. Type of data set: physicochemical. The settings on record: solutions in polyethoxylated sorbitol previously or posteriorly acidified.
Data set [2] in a line: Comparative stability study between the tri-hydrate and anhydrous forms of docetaxel (bulk substance). In kind it is physicochemical. Set-up: Assay (H2O): unit not given here. The settings on record: for A % Docetaxel / A % Impurities (unknown) / Assay (H2O): bulk substance; for A % Docetaxel: amber glass vials under N2 over P2O5, −5 to 0° C.; for A % Docetaxel / A % Impurities (unknown): HPLC; for A % Impurities (unknown) / Assay (H2O): −5 to 0° C.; for Assay (H2O): Karl Fischer titration. The method, then:
Comparative stability study between the tri-hydrate and anhydrous forms of (2R,3S)4-acetoxy-2-α-benzoyloxy-5β-20-epoxy-1,7-β-10-β-tri-hydroxy-9-oxo-tax-11-en-13α-il 3-tert-butoxycarbonylamino-2-hydroxy-3-phenylpropionate
Analysis was realized by HPLC using a Waters Spherisorb® C-18, 250×5 mm column, mobile phase MeOH:H2O 85:15, flow 1.5 mL/min. Related impurities reported as A % discounting the peak due to the dead volume. Samples were stored in amber glass vials under N2 in a dessicator over P2O5 maintained between −5 and 0° C.

For data set [3] the following is noted: statement of patent application PI 9508789-3; cited from earlier work.
[4] abbreviates: stored under adequate and controlled conditions.

Turning to `CC(=O)O[C@@]12CO[C@@H]1C[C@H](O)[C@@]1(C)C(=O)[C@H](O)C3=C(C)[C@@H](OC(=O)[C@H](O)[C@@H](NC(=O)OC(C)(C)C)c4ccccc4)C[C@@](O)([C@@H](OC(=O)c4ccccc4)[C@H]21)C3(C)C` [Docetaxel (anhydrous), (2R,3S)4-acetoxy-2-α-benzoyloxy-5β-20-epoxy-1,7-β-10-β-tri-hydroxy-9-oxo-tax-11-en-13α-il 3-tert-butoxycarbonylamino-2-hydroxy-3-phenylpropionate], the “stability conferred to the pharmaceutical finished dosage form” value in data set [1] is “equal or superior stability”. Moreover, the “A % Docetaxel” value in data set [2] (0 months) stood at 99.28 A %; in data set [2] (3 months) it was 99.21 A %; in data set [2] (6 months), 99.26 A %; in data set [2] (12 months) it was 98.93 A %; in data set [2] (18 months) it was 98.65 A %; in data set [2] (24 months), 98.29 A %. The “A % Impurities (unknown)” value is reported as 0.72 A % in data set [2] (0 months); 0.79 A % in data set [2] (3 months); 0.73 A % in data set [2] (6 months); 1.07 A % in data set [2] (12 months); 1.35 A % in data set [2] (18 months); 1.71 A % in data set [2] (24 months). Besides, the “Assay (H2O)” value in data set [2] (0 months) came out at 0.10; in data set [2] (3 months), 0.11; in data set [2] (6 months), 0.12; in data set [2] (12 months) it was 0.09; in data set [2] (18 months), 0.12; in data set [2] (24 months), 0.13. For the same compound, in data set [2] (setting [4]), the re-hydration on storage result is given as “does not re-hydrate to a significant degree”. For the same compound, in data set [2] (setting [4]), the “stability of anhydrous product compared with tri-hydrate” value is listed as “stability equal or superior to the tri-hydrate”.

As for `CC(=O)O[C@@]12CO[C@@H]1C[C@H](O)[C@@]1(C)C(=O)[C@H](O)C3=C(C)[C@@H](OC(=O)[C@H](O)[C@@H](NC(=O)OC(C)(C)C)c4ccccc4)C[C@@](O)([C@@H](OC(=O)c4ccccc4)[C@H]21)C3(C)C` [Docetaxel (tri-hydrate), tri-hydrate of (2R,3S)4-acetoxy-2-α-benzoyloxy-5β-20-epoxy-1,7-β-10-β-tri-hydroxy-9-oxo-tax-11-en-13α-il 3-tert-butoxycarbonylamino-2-hydroxy-3-phenylpropionate], the “A % Docetaxel” value in data set [2] (0 months) came out at 99.51 A %; in data set [2] (3 months), 99.23 A %; in data set [2] (6 months), 99.30 A %; in data set [2] (12 months), 98.91 A %; in data set [2] (18 months) it was 98.72 A %; in data set [2] (24 months), 98.21 A %. Moreover, the “A % Impurities (unknown)” value in data set [2] (0 months) was found to be 0.49 A %; in data set [2] (3 months), 0.77 A %; in data set [2] (6 months), 0.70 A %; in data set [2] (12 months), 1.09 A %; in data set [2] (18 months) it was 1.28 A %; in data set [2] (24 months), 1.79 A %. The “Assay (H2O)” value is reported as 6.32 in data set [2] (0 months); 6.35 in data set [2] (3 months); 6.21 in data set [2] (6 months); 6.42 in data set [2] (12 months); 6.31 in data set [2] (18 months); 6.29 in data set [2] (24 months). The “stability of tri-hydrate relative to anhydrous product” value in data set [3] is “clearly superior stability relative to the anhydrous product”.

The values are drawn from patent publication US8304450B2, “Stable pharmaceutical compositions with docetaxel” (Quiral Quimica Do Brasil S.A., priority 2003, dated 2012).
